According to the supplement of paper PMC6580486:
Structures can show the parent of a compound that is named as a salt.

Columns and labels:
PCB-495 = tested on: PCB-495 (human epithelioid sarcoma primary culture)
Description: (§1)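 60-agent targeted drug screens (Drug Screen V3 on epithelioid sarcoma cultures PCB490-3/4/5, PCB495, EPS cell lines ESX, VA-ES-BJ, FU-EPS-1 and SkMc myoblasts; PPTI screen v2.1 on human UPS PCB197 and canine UPS S1-12). 384-well plates, 72 h, CellTiter-Glo viability; IC50 by Hill curve fit. 10000 nM = no IC50 achieved (top reported value).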

PCB-490-4 = tested on: PCB-490-4 (human epithelioid sarcoma primary culture)
Description: as §1

SkMc = tested on: SkMc
Description: as §1

PCB-490-3 = tested on: PCB-490-3 (human epithelioid sarcoma primary culture)
Description: as §1

PCB-490-5 = tested on: PCB-490-5 (human epithelioid sarcoma primary culture)
Description: as §1

ESX = tested on: ESX
Description: as §1

VA-ES-BJ = tested on: VA-ES-BJ
Description: as §1

FU-EPS-1 = tested on: FU-EPS-1
Description: as §1

s1-12 = tested on: s1-12 (canine undifferentiated pleomorphic sarcoma culture)
Description: as §1

pcb-00197 = tested on: pcb-00197 (human undifferentiated pleomorphic sarcoma culture)
Description: as §1

Compound | IC50 cell viability (PCB-495) [µM] | IC50 cell viability (PCB-490-4) [µM] | IC50 cell viability (SkMc) [µM] | IC50 cell viability (PCB-490-3) [µM] | IC50 cell viability (PCB-490-5) [µM] | IC50 cell viability (ESX) [µM] | IC50 cell viability (VA-ES-BJ) [µM] | IC50 cell viability (FU-EPS-1) [µM] | IC50 cell viability (s1-12) [µM] | IC50 cell viability (pcb-00197) [µM]
Cn1cc(NC(=O)c2cc(NC(=O)CNC(=N)N)cn2C)cc1C(=O)NCCC(=N)N [Netropsin Dihydrochloride] | 5.52 | > 10 | > 10 | > 10 | > 10 | > 10 | > 10 | > 10 |  | 
Cn1c(=O)n(-c2ccc(C(C)(C)C#N)cc2)c2c3cc(-c4cnc5ccccc5c4)ccc3ncc21 [BEZ235] | 0.43 | 0.26 | 0.37 | 1.36 | 0.2 | 0.02 | 0.08 | 0.14 |  | 
CCc1cnn2c(NCc3ccc[n+]([O-])c3)cc(N3CCCC[C@H]3CCO)nc12 [Dinaciclib] | 0.01 | 0.1 | > 10 | > 10 | > 10 | 0.01 | 0.01 | > 10 | 0.01 | > 10
CCCc1c(OCCCOc2cc(O)c(-c3ccc(F)cc3)cc2CC)cccc1Oc1ccccc1C(=O)O | > 10 | > 10 | > 10 | > 10 | > 10 | > 10 | > 10 | > 10 |  | 
CC(C)N(CCCNC(=O)Nc1ccc(C(C)(C)C)cc1)C[C@H]1O[C@@H](n2cc(Br)c3c(N)ncnc32)[C@H](O)[C@@H]1O [SGC0946] | 0.6 | > 10 | 0.1 | > 10 | > 10 | 0.62 | 0.49 | 1.48 |  | 
CN(C(=O)c1ccc(F)cc1C(F)(F)F)C1CCN(c2nnc(-c3ccnn3C)c3ccccc23)CC1 | > 10 | > 10 | > 10 | > 10 | > 10 | > 10 | > 10 | > 10 |  | 
Cc1cc(-c2ncc(CC(=O)Nc3ccc(-c4cnccn4)cn3)cc2C)ccn1 [LGK974] | > 10 | > 10 | > 10 | > 10 | > 10 | > 10 | > 10 | > 10 |  | 
CC(C)(C)Cn1c(N)nc2ccc(-c3[nH]c(C(C)(C)C)nc3-c3ccc(F)cc3)nc21 | > 10 | > 10 | > 10 | > 10 | > 10 | 5.07 | > 10 | > 10 |  | 
CC[C@@H]1C(=O)N(C)c2cnc(Nc3ccc(C(=O)N[C@H]4CC[C@H](N5CCN(CC6CC6)CC5)CC4)cc3OC)nc2N1C(C)C [Volasertib] | 6.54 | > 10 | > 10 | > 10 | > 10 | 6.23 | 1.09 | 0.35 |  | 
O=C1NC(=O)C(c2cnc3ccccn23)=C1c1cn2c3c(cc(F)cc13)CN(C(=O)N1CCCCC1)CC2 | > 10 | > 10 | 0.2 | > 10 | > 10 | 1.52 | > 10 | > 10 |  | 
C[C@]1(O)C[C@@H](c2nc(-c3ccc4ccc(-c5ccccc5)nc4c3)c3c(N)nccn32)C1 [OSI-906] | > 10 | > 10 | > 10 | > 10 | > 10 | 0.02 | > 10 | > 10 | 1.07 | > 10
CCOC(=O)CCNc1cc(N2CCc3ccccc3CC2)nc(-c2ccccn2)n1 [GSK-J4 HCl] | > 10 | > 10 | > 10 | > 10 | > 10 | 1.58 | 4.72 | > 10 |  | 
O=c1ncccn1[C@@H]1O[C@H](CO)[C@@H](O)[C@H]1O [Zebularine] | > 10 | > 10 | > 10 | > 10 | > 10 | > 10 | > 10 | > 10 |  | 
Nc1ccccc1NC(=O)c1ccc(CNC(=O)OCc2cccnc2)cc1 [Entinostat] | > 10 | > 10 | > 10 | > 10 | > 10 | > 10 | 1.18 | 2.69 | 0.92 | > 10
C=C[C@@]1(C)CC(=O)[C@]2(O)[C@@]3(C)[C@@H](O)CCC(C)(C)[C@@H]3[C@H](O)[C@H](OC(C)=O)[C@@]2(C)O1 [Forskolin] | > 10 | > 10 | > 10 | > 10 | > 10 | > 10 | > 10 | > 10 |  | 
CC[C@H](C)n1cc(C)c2c(C(=O)NCc3c(C)cc(C)[nH]c3=O)cc(-c3ccc(N4CCNCC4)nc3)cc21 [GSK126] | > 10 | > 10 | 0.44 | > 10 | > 10 | > 10 | > 10 | > 10 |  | 
